Test results reported in ChEMBL document CHEMBL4043270, “Design, synthesis and biological evaluation of 2-phenylquinoline-4-carboxamide derivatives as a new class of tubulin polymerization inhibitors” (Bioorg Med Chem, 2017).
The source made the active and inactive calls. No cut-off for these calls is given here.

How the values were obtained:
A549 = assay: Antiproliferative activity against human A549 cells by SRB assay; format: functional, cell-based
SK-OV-3 = assay: Antiproliferative activity against human SKOV3 cells by SRB assay; format: functional, cell-based
MRC5 = assay: Antiproliferative activity against human MRC5 cells by SRB assay; format: cell-based
HeLa = assay: Antiproliferative activity against human HeLa cells by SRB assay; format: functional, cell-based
HCT-116 [1] = assay: Antiproliferative activity against human HCT116 cells by SRB assay; format: functional, cell-based
MDA-MB-468 = assay: Antiproliferative activity against human MDA-MB-468 cells by SRB assay; format: functional, cell-based
Bos taurus = species on record: Bos taurus; assay: Inhibition of bovine tubulin polymerization at 125 to 725 nM measured every 60 secs intervals for 60 mins in presence of GTP by fluorescence assay
HCT-116 [2] = assay: Induction of apoptosis in human HCT116 cells assessed as late apoptotic cells at 0.5 uM after 24 hrs by annexin-V FITC/propidium iodide staining based flow cytometry (reference value: 0.96%); format: functional
HCT-116 [3] = assay: Cell cycle arrest in human HCT116 cells assessed as accumulation at G1 phase at 125 nM after 48 hrs by […]propidium iodide staining based flow cytometry (reference value: 89.45%); format: functional
HCT-116 [4] = assay: Cell cycle arrest in human HCT116 cells assessed as accumulation at G2/M phase at 125 nM after 48 hrs by […]propidium iodide staining based flow cytometry (reference value: 1.62%); format: functional
HCT-116 [5] = assay: Cell cycle arrest in human HCT116 cells assessed as accumulation at S phase at 500 nM after 48 hrs by […]propidium iodide staining based flow cytometry (reference value: 8.93%); format: functional
HCT-116 [6] = assay: Induction of apoptosis in human HCT116 cells assessed as necrotic cells at 0.5 uM after 24 hrs by annexin-V FITC/propidium iodide staining based flow cytometry (reference value: 0.03%); format: functional
HCT-116 [7] = assay: Cell cycle arrest in human HCT116 cells assessed as accumulation at G2/M phase at 500 nM after 48 hrs by […]propidium iodide staining based flow cytometry (reference value: 1.62%); format: functional
HCT-116 [8] = assay: Cell cycle arrest in human HCT116 cells assessed as accumulation at G1 phase at 500 nM after 48 hrs by […]propidium iodide staining based flow cytometry (reference value: 89.45%); format: functional
HCT-116 [9] = assay: Cell cycle arrest in human HCT116 cells assessed as accumulation at S phase at 125 nM after 48 hrs by […]propidium iodide staining based flow cytometry (reference value: 8.93%); format: functional
HCT-116 [10] = assay: Induction of apoptosis in human HCT116 cells assessed as viable cells at 0.5 uM after 24 hrs by annexin-V FITC/propidium iodide staining based flow cytometry (reference value: 97.93%); format: functional; details: HCT-116, 24 h, read-out: Activity
Homo sapiens = species on record: Homo sapiens; assay: Displacement of colchicine from tubulin (unknown origin) at 0.1 to 10 uM after 1 hr by fluorescence assay
HCT-116 [11] = assay: Induction of microtubule disruption in human HCT116 cells assessed as change in microtubule architecture at 0.5 uM after 24 hrs by DAPI staining based confocal microscopic method; format: functional, cell-based
HCT-116 [12] = assay: Induction of Cyclin B1 accumulation in human HCT116 cells at 0.06 to 1 uM after 24 hrs by Western blot method; format: functional, cell-based
HCT-116 [13] = assay: Induction of apoptosis in human HCT116 cells assessed as early apoptotic cells at 0.5 uM after 24 hrs by annexin-V FITC/propidium iodide staining based flow cytometry (reference value: 1.08%); format: functional

Compound	IC50 (A549) [µM]	IC50 (SK-OV-3) [µM]	IC50 (MRC5) [µM]	IC50 (HeLa) [µM]	IC50 (HCT-116 [1]) [µM]	IC50 (MDA-MB-468) [µM]	also measured
COc1ccc(NC(=O)c2cc(-c3ccccc3)nc3ccc(Cl)cc23)cc1	> 50	20.3	> 50	40.2	24.8	> 50	
COc1ccc(NC(=O)c2cc(-c3cccc(C)c3)nc3ccccc23)c(C)c1	23.6	15.3	> 50	10.4	14.6	32.1	
COC(=O)C1=C(NC(=O)c2cc(-c3ccccc3)nc3ccccc23)NC=CN1	> 50	38.9	> 50	36.8	29.5	> 50	
COc1ccc(NC(=O)c2cc(-c3ccccc3C)nc3ccccc23)cc1	> 50	36.7	> 50	42.8	31.4	> 50	
COc1ccc(NC(=O)c2cc(-c3cccc(C)c3)nc3ccccc23)cc1	30.5	12.4	> 50	30.2	9.4	> 50	
COc1ccc(NC(=O)c2cc(-c3ccc(C)cc3)nc3ccccc23)c(C)c1	11.6	4.2	48.1	9.5	1.7	17.4	
COc1ccc(NC(=O)c2cc(-c3ccc(C)cc3)nc3ccc(C)cc23)cc1	29.7	8.3	> 50	16.4	10.4	32.4	
COc1cc(NC(=O)c2cc(-c3ccc(C)cc3)nc3ccccc23)cc(OC)c1OC	5.7	0.5	31.9	1.6	0.2	10.8	inhibition (Bos taurus): Active; Activity (HCT-116 [2]): 39.47%; Activity (HCT-116 [3]): 46.62%; Activity (HCT-116 [4]): 48.17%; Activity (HCT-116 [5]): 7.87%; Activity (HCT-116 [6]): 0.04%; Activity (HCT-116 [7]): 87.2%; Activity (HCT-116 [8]): 4.93%; Activity (HCT-116 [9]): 5.21%; viability at 0.5 µM (HCT-116 [10]): 15.2%; inhibition (Homo sapiens): Active; Activity (HCT-116 [11]): Active; Activity (HCT-116 [12]): Active; Activity (HCT-116 [13]): 45.26%
COc1ccc(NC(=O)c2cc(-c3ccc4c(c3)OCO4)nc3ccccc23)cc1	46.3	43.4	> 50	> 50	> 50	> 50	
COc1cccc(NC(=O)c2cc(-c3ccccc3)nc3ccccc23)c1	32.5	17.4	43.8	40.5	12.9	34.7	
COc1ccc(NC(=O)c2cc(-c3ccc(C)cc3)nc3ccccc23)cc1	18.5	6.3	47.8	25.2	3.7	35.2	
COc1cc(NC(=O)c2cc(-c3ccccc3)nc3ccccc23)cc(OC)c1OC	17.9	5.4	38.8	12.7	2.7	18.9	
CCOc1ccc(NC(=O)c2cc(-c3ccccc3)nc3ccccc23)cc1	> 50	45.8	> 50	> 50	49.1	> 50	
COC(=O)c1sccc1NC(=O)c1cc(-c2ccccc2)nc2ccccc12	48.7	20.3	46.3	34.5	22.6	36.8	
COc1cc(NC(=O)c2cc(-c3cccc(C)c3)nc3ccccc23)cc(OC)c1OC	17.8	10.6	42.3	5.3	11.6	32.7	
COc1ccc(NC(=O)c2c3c(nc4ccc(Cl)cc24)-c2ccccc2CC3)c(C)c1	> 50	32.5	> 50	> 50	> 50	> 50	
COc1ccc(NC(=O)c2cc(-c3ccccc3C)nc3ccccc23)c(C)c1	45.7	42.2	> 50	> 50	43.6	41.6	

Compound	IC50 (A549) [µM]	IC50 (SK-OV-3) [µM]	IC50 (MRC5) [µM]	IC50 (HeLa) [µM]	IC50 (HCT-116 [1]) [µM]	IC50 (MDA-MB-468) [µM]	also measured
COc1ccc(NC(=O)c2cc(-c3ccccc3)nc3ccc(F)cc23)cc1	> 50	29.7	> 50	> 50	34.2	> 50	
COc1cc(NC(=O)c2cc(-c3ccc(C)cc3)nc3ccc(C)cc23)cc(OC)c1OC	20.3	6.2	42.7	13.5	5.2	37.1	
COc1ccc(NC(=O)c2cc(-c3ccc(C(F)(F)F)cc3)nc3ccccc23)c(C)c1	> 50	> 50	> 50	> 50	47.3	> 50	
COc1cc(NC(=O)c2cc(-c3ccccc3)nc3ccc(Cl)cc23)cc(OC)c1OC	> 50	24.1	> 50	> 50	36.4	> 50	
COc1cc2c(c(OC)c1OC)-c1ccc(OC)c(=O)cc1[C@@H](NC(C)=O)CC2 [COLCHICINE]	0.02	0.05	0.09	0.5	0.01	0.06	
COc1ccc(NC(=O)c2cc(-c3ccccc3)nc3ccccc23)c(C)c1	23.7	8.4	> 50	16.4	7.8	20.1	
CC[C@]1(O)C[C@@H]2CN(CCc3c([nH]c4ccccc34)[C@@](C(=O)OC)(c3cc4c(cc3OC)N(C)[C@H]3[C@@](O)(C(=O)OC)[C@H](OC(C)=O)[C@]5(CC)C=CCN6CC[C@]43[C@@H]65)C2)C1							inhibition (Homo sapiens): inactive
COc1ccc(NC(=O)c2cc(-c3ccccc3)nc3ccccc23)cc1	20.5	12.8	40.5	32.5	4.9	34.7	
COc1ccc(NC(=O)c2c3c(nc4ccc(Cl)cc24)-c2ccccc2CC3)cc1	> 50	37.6	> 50	> 50	39.5	> 50	
Cc1cc(NC(=O)c2cc(-c3ccccc3)nc3ccccc23)no1	37.9	36.6	> 50	> 50	25.8	46.2	
C=CCNC(=S)NC(=O)c1cc(-c2ccccc2)nc2ccccc12	> 50	> 50	> 50	> 50	> 50	> 50	
CSc1cccc(NC(=O)c2cc(-c3ccccc3)nc3ccccc23)c1	> 50	36.8	> 50	45.8	48.3	42.8	
COc1ccc(NC(=O)c2cc(-c3ccc(C)cc3)nc3ccc(C)cc23)c(C)c1	30.1	12.3	> 50	20.4	11.9	46.1	
COc1ccc(NC(=O)c2cc(-c3ccccc3)nc3ccc(Cl)cc23)c(C)c1	> 50	34.2	> 50	> 50	27.4	> 50	
O=C(NC(Cc1ccccc1)C(=O)OCc1ccccc1)c1cc(-c2ccccc2)nc2ccccc12 (configuration not stated)	> 50	> 50	> 50	> 50	36.1	> 50	
COc1cc(OC)c(NC(=O)c2cc(-c3ccccc3)nc3ccccc23)cc1Cl	> 50	36.3	> 50	42.6	> 50	42.8	
